Reference: patent US6441027B1, “Method of regulating the female reproductive system through angiogenesis inhibitors” (Children's Medical Center Corporation, priority 1996, dated 2002)
Entries after “also recorded” stand apart in the source; their conditions may differ. Like-named read-outs stand apart in the source and are kept apart here.

How the values were obtained:
[1] = test system: VEGF induced neovascularization; experiment: Mouse corneal micropocket model, VEGF pellet; type: in vivo; settings: mouse cornea, n=10/group, p<0.001
Description: (§1) To confirm that angiogenesis was being inhibited, AGM-1470 was tested in vivo. A mouse corneal micropocket model was used which was recently developed to model tumor angiogenesis. Pellets of bFGF or VEGF were implanted in the mouse cornea resulting in aggressive neovascularization. AGM-1470 inhibited the amount of bFGF or VEGF induced neovascularization by 47% or 62% respectively (n=10/group p<0.001).

decidual stromal cells = experiment: PCNA staining of decidua on E6; type: in vivo, mouse
Description: To test this hypothesis, mice were treated with AGM-1470 on E1 and sacrificed at E6, a time point prior to placental formation. The uteri of the mice were examined by antibodies to Factor VIII and PCNA to determine if there was any difference in the degree of endometrial angiogenesis or the proliferative response of the decidua induced by trophoblast invasion. However, in the decidua there was a 50% decrease in the proliferation of stromal cells in the AGM-1470 treated mice as compared to control (PCNA staining/X630 field in control was 48%±3, n=4, versus 24%±5, n=4, P≦0.005 in AGM-1470 treated mice. See FIG. 4A and 4B). […]
To determine the rate of cellular proliferation, staining for proliferating cell nuclear antigen (PCNA) was performed. […] Positive staining was detected by using horse radish peroxidase-conjugated secondary (Dako) and tertiary (Dako) antibodies, and DAB as a chromagen. The PCNA labeling index was determined by counting the percentage of stained cells under light microscopy within selected 630× fields. A minimum of 1,000 cells were counted for each specimen.
In experiments with AGM-1470 treatment of pregnant mice, transverse sections through embryos contained within the uterus were stained. Microvessels density was determined at the intersite endometrium and PCNA was determined in the decidual stroma. […]

angiogenesis = settings: cited from earlier work
[2] = test system: bFGF induced neovascularization; experiment: Mouse corneal micropocket model, bFGF pellet; type: in vivo; settings: mouse cornea, n=10/group, p<0.001
Description: as §1

inseminated mice = experiment: Inseminated mice, single low dose 3 mg/kg; type: in vivo, mouse
Description: The same protocol was followed as was performed for AGM-1470 30 mg/kg except mice were injected with only 3 mg/kg AGM-1470 on E1 or E7. The 10-fold lower dose was tested to determine if a dose in which the fetuses come to term would produce birth defects. Mice were sacrificed at E18 and fetal viability, number of implantation cites, crown-rump length, and tail length were assessed.

female C57BL/6 mice [3] = type: in vivo, mouse
Description: Group housed female C57BL/6 mice were treated with a single injection of AGM-1470 (30 mg/kg, s.c.) and paired with male breeders at various times after treatment. Treatment groups are designated as the number of days between plugging and treatment. The 6 control groups are combined and expressed as the mean±SD. The number of matings in per group is listed below each labeled group.
The experiment was designed to detect how long before mating a single dose of AGM-1470 might be effective. Sexually mature female mice were treated with a single dose of AGM-1470 (30 mg/kg, s.c.) up to five days prior to mating [designated E(−5), E(−4), E(−3), E(−2), E(−1), or E0 with the date of plugging being E0]. For treatments on E(−5) through E(−1), group-housed female mice were injected with AGM-1470 and then individually paired with male breeders at varying times after injection. For E0 treatment, females were paired with males and then plugged females were injected. Pregnancies were monitored by maternal weights and allowed to go to term. The contraceptive efficacy of a single dose of AGM-1470 on each of these days, calculated by the percentage of matings resulting in any viable deliveries […]. The contraceptive efficacy of a single dose of AGM-1470 on each of these days, expressed as the percentage of matings resulting in viable deliveries is illustrated in FIG. 8.

female C57BL/6 mice [4] = experiment: Single dose on E(-1): implantation sites 6 days after mating; type: in vivo, mouse; settings: single dose 30 mg/kg s.c. on E(-1), sacrificed 6 days after mating
Description: FIGS. 7A and 7B show the ovaries and uteri from a control mouse or an AGM-treated mouse given a single dose of AGM-1470 on E(−1). Group housed female C57BL/6 mice were treated with a single injection of AGM-1470 (30 mg/kg, s.c.) and paired with male breeders. Mice who mated on the day after treatment were sacrificed 6 days after mating. Ovaries and uteri were removed en bloc, fixed and stained with hemotoxylin and eosin. […] Thin arrows indicate the corpora lutea.
In addition, the ovaries and uteri from control and single treatment mice were examined. Group housed female C57BL/6 mice were treated with a single injection of AGM-1470 (30 mg/kg, s.c.) and paired with male breeders. Mice who mated on the day after treatment were sacrificed 6 days after mating. Ovaries and uteri were removed en bloc, fixed and stained with hemotoxylin and eosin. […] Thin arrows indicate the corpora lutea.^1 The fat arrows indicate implantation sites in control not seen in treated animal.

CO[C@@H]1[C@H](OC(=O)NC(=O)CCl)CC[C@]2(CO2)[C@H]1[C@@]1(C)O[C@@H]1CC=C(C)C [AGM-1470, O-chloroacetylcarbamoyl fumagillol]
inhibition of VEGF induced neovascularization [1]: 62% | decrease in proliferation of decidual stromal cells vs control (decidual stromal cells; treated on E1, sacrificed E6): 50% | PCNA staining/X630 field in decidua (decidual stromal cells; treated on E1, sacrificed E6, n=4): 24%±5 | activity relative to parent compound fumagillin (angiogenesis): 50 times | inhibition of bFGF induced neovascularization [2]: 47% | reduction of crown-rump length on E18 relative to control (inseminated mice; 3 mg/kg on E1): 36% | reduction of tail length relative to control (inseminated mice; 3 mg/kg on E1): 43% | fetal viability at E18 (inseminated mice; 3 mg/kg on E1 (n=21 fetuses) or E7 (n=8 fetuses)): viable | crown-rump length on E18 (inseminated mice; 3 mg/kg on E1, n=7 embryos): 13.0±0.1 mm | birth defects (inseminated mice; 3 mg/kg on E1 or E7, fetuses at E18): no birth defects | reduction of crown-rump length on E18 relative to control (inseminated mice; 3 mg/kg on E7): 19% | reduction of tail length relative to control (inseminated mice; 3 mg/kg on E7): 12% | crown-rump length on E18 (inseminated mice; 3 mg/kg on E7, n=7 embryos): 16.5±0.5 mm | tail length on E18 (inseminated mice; 3 mg/kg on E7, n=7 embryos): 10.0±0.1 mm | effect on live births (female C57BL/6 mice [3]; single dose 30 mg/kg s.c. on E0): completely block live births | effect on live births (female C57BL/6 mice [3]; single dose 30 mg/kg s.c. on E(-1)): completely block live births | reduction of percentage of animals with successful pregnancies (female C57BL/6 mice [3]; single dose 30 mg/kg s.c. on E(-2)): 80% | frequency of litters (female C57BL/6 mice [3]; single dose 30 mg/kg s.c. three to five days prior to mating): same frequency as controls | number of dead births relative to controls (female C57BL/6 mice [3]; single dose 30 mg/kg s.c., any time point E(-5) to E0): No differences | percentage of mated animals with viable births (female C57BL/6 mice [3]; single dose 30 mg/kg s.c., treatments on E0, E-1 and E-2 (FIG. 8)): inhibition of viable births | implantation sites (female C57BL/6 mice [4]): prevented implantation; also recorded: not seen in AGM-1470 treated animal
